Key:
Format in all cases: toxicity, cell-based
Fibroblast = assay: Incucyte cell viability with human fibroblast; conditions: 10 µM, compound concentration 10 uM
HEK-293T = assay: Incucyte cell viability with HEK293T; conditions: human, 10 µM, compound concentration 10 uM
U2OS = assay: Incucyte cell viability with U2OS; conditions: human, 10 µM, compound concentration 10 uM
[1] = 0 h, replicate number 1, timepoint 0 hours
[2] = 0 h, replicate number 2, timepoint 0 hours
[3] = 6 h, replicate number 2, timepoint 6 hours
[4] = 12 h, replicate number 2, timepoint 12 hours
[5] = 18 h, replicate number 2, timepoint 18 hours
[6] = 24 h, replicate number 2, timepoint 24 hours
[7] = 6 h, replicate number 1, timepoint 6 hours
[8] = 12 h, replicate number 1, timepoint 12 hours
[9] = 18 h, replicate number 1, timepoint 18 hours
[10] = 24 h, replicate number 1, timepoint 24 hours
Also: unitless GR value; below 1 slowed growth and below 0 cell loss.

Compound | Growth Rate (Fibroblast; [1]) | Growth Rate (Fibroblast; [2]) | Growth Rate (HEK-293T; [1]) | Growth Rate (HEK-293T; [2]) | Growth Rate (U2OS; [1]) | Growth Rate (U2OS; [4]) | Growth Rate (U2OS; [5]) | Growth Rate (U2OS; [6]) | Growth Rate (Fibroblast; [7]) | Growth Rate (Fibroblast; [8]) | Growth Rate (Fibroblast; [9]) | Growth Rate (HEK-293T; [3]) | Growth Rate (HEK-293T; [8]) | Growth Rate (HEK-293T; [9]) | Growth Rate (HEK-293T; [5]) | Growth Rate (HEK-293T; [10]) | Growth Rate (U2OS; [2]) | Growth Rate (Fibroblast; [10]) | Growth Rate (U2OS; [9]) | Growth Rate (HEK-293T; [7]) | other results
COc1cc(C(=O)N(CCCc2ccccc2)Cc2ccc(CC(=O)O)cc2)cc(OC)c1C | -0.55 | 0.01 | 0.55 | 0.84 | -0.86 | 0.94 | 0.97 | 0.96 |  |  |  |  |  |  |  |  |  |  |  |  | Growth Rate (U2OS; [3]): 0.79
CCCN[C@H]1CCc2nc(N)sc2C1.Cl.Cl |  | -0.13 | 0.73 | 0.77 |  | 0.97 | 0.92 |  | -0.38 | 0.31 | 0.84 | 0.07 | 0.99 | 0.97 | 0.77 | 0.93 | 0.18 |  |  |  | Growth Rate (Fibroblast; [3]): 0.73; Growth Rate (Fibroblast; [4]): 0.7; Growth Rate (HEK-293T; [4]): 0.53; Growth Rate (HEK-293T; [6]): 0.81
COc1ccc(CN(CCN(C)C)c2ccccn2)cc1 [PYRILAMINE] |  | 0.99 |  |  | 0.52 |  | 0.91 | 0.96 | 0.36 |  |  | 0.74 | 0.94 |  |  |  |  |  |  |  | Growth Rate (Fibroblast; [3]): 0.26; Growth Rate (HEK-293T; [4]): 0.74; Growth Rate (U2OS; [10]): 1
C[C@]1(O)CC[C@H]2[C@@H]3CCC4=CC(=O)CCC4=C3C=C[C@@]21C [METRIBOLONE] | 0.89 | 0.22 | 0.16 | 0.59 |  | 0.92 | 0.92 | 0.86 | 0.66 | 0.98 |  |  |  | 1 |  | 0.98 | 0.07 | 0.98 | 0.54 |  | Growth Rate (Fibroblast; [3]): 0.85; Growth Rate (U2OS; [7]): 0.83; Growth Rate (U2OS; [8]): 0.56; Growth Rate (U2OS; [10]): 0.76
O=C([O-])[C@H]1O[C@H](OP(=O)([O-])OP(=O)([O-])OC[C@H]2O[C@@H](n3ccc(=O)[nH]c3=O)[C@H](O)[C@@H]2O)[C@H](O)[C@@H](O)[C@@H]1O.[Na+].[Na+].[Na+] |  | 0.57 | 0.81 | -0.02 | 0.32 |  |  |  |  |  | 0.88 |  | 0.65 | 0.64 |  | 0.84 | 0.71 | 0.93 | 0.9 | 0.43 | Growth Rate (HEK-293T; [6]): 0.91; Growth Rate (U2OS; [7]): 0.46; Growth Rate (U2OS; [8]): 0.9
C[C@@H]1CN(Cc2ccc(F)cc2)CCN1C(=O)COc1ccc(Cl)cc1NC(N)=O [BX 471 FREE BASE] | 0.82 | 0.24 |  |  | -0.96 | 0.91 | 0.79 | 0.89 | -0.16 | -0.14 | -0.19 | 0.4 | -0.03 | 0.11 | 0.4 | 0.18 | -1 | -0.14 |  | -0.13 | Growth Rate (Fibroblast; [3]): 0.36; Growth Rate (Fibroblast; [4]): 0.49; Growth Rate (Fibroblast; [5]): 0.85; Growth Rate (Fibroblast; [6]): 0.72; Growth Rate (HEK-293T; [4]): 0.27; Growth Rate (HEK-293T; [6]): 0.33; Growth Rate (U2OS; [3]): 0.94
NC(=O)c1ccc(CNC(=O)NC[C@H]2CN(Cc3ccc(Cl)c(Cl)c3)CCO2)cc1 | 0.21 |  |  | 0.54 |  |  |  |  |  |  |  |  | 0.86 | 0.88 | 1 | 0.88 | 0.11 |  | 0.91 | 0.47 | Growth Rate (HEK-293T; [6]): 0.8; Growth Rate (U2OS; [7]): 0.32; Growth Rate (U2OS; [8]): 0.8
O=S(=O)(c1ccccc1)N(CC(F)(F)F)c1ccc(C(O)(C(F)(F)F)C(F)(F)F)cc1 [T091317] |  |  | 0.85 |  | 0.14 | 0.83 | 0.76 | 0.81 | 0.72 | -0.09 | -0.3 | 0.77 | 0.42 | 0.24 | 0.56 | 0.37 | -0.29 | -0.32 | 0.98 | 0.85 | Growth Rate (Fibroblast; [4]): 0.22; Growth Rate (Fibroblast; [5]): 0.05; Growth Rate (Fibroblast; [6]): 0.05; Growth Rate (HEK-293T; [4]): 0.75; Growth Rate (HEK-293T; [6]): 0.53; Growth Rate (U2OS; [7]): 0.74
Nc1ncnc2c1ncn2[C@@H]1O[C@H](CO)[C@@H](O)[C@H]1O [ADENOSINE] | 0.25 | 0.19 | -0.6 | -0.36 | 0.54 |  |  |  | -0.04 | 0.59 | 0.7 |  |  |  | 0.98 | 0.79 |  | 0.58 | 0.77 |  | Growth Rate (U2OS; [7]): 0.47; Growth Rate (U2OS; [8]): 0.84
Cc1ccc(-c2ccc(F)cc2COc2ccc(CCC(=O)O)cc2)cc1 |  | 0.45 | 0.43 | 0.55 | -0.34 |  |  |  | 0.23 | 0.58 | 0.18 |  |  |  |  |  | -0.59 | 0.42 |  |  | 
CCC(C)n1ncn(-c2ccc(N3CCN(c4ccc(OC[C@@H]5CO[C@@](Cn6cncn6)(c6ccc(Cl)cc6Cl)O5)cc4)CC3)cc2)c1=O.CCC(C)n1ncn(-c2ccc(N3CCN(c4ccc(OC[C@H]5CO[C@](Cn6cncn6)(c6ccc(Cl)cc6Cl)O5)cc4)CC3)cc2)c1=O (stereo partly drawn) | 0.6 | -0.02 |  |  | -0.09 |  |  | 0.94 |  |  |  | 0.11 | -0.28 | 0.44 | 0.02 | -0.08 |  |  |  | -0.37 | Growth Rate (Fibroblast; [6]): 0.95; Growth Rate (HEK-293T; [4]): 0.15; Growth Rate (HEK-293T; [6]): 0.33; Growth Rate (U2OS; [10]): 0.73
O=C1c2c(Br)c(Br)c(Br)c(Br)c2C(=O)N1c1ncc[nH]1 | -1 | 0.94 | 0.24 | 0.87 |  | 0.89 | 1 |  |  | 0.69 | 0.62 | 0.45 | 0.51 | 0.67 |  | 0.91 | -1 | 0.65 | 0.89 |  | Growth Rate (Fibroblast; [3]): 0.37; Growth Rate (U2OS; [7]): 0.46; Growth Rate (U2OS; [10]): 0.98
COc1cc2nc(N3CCN(C(=O)c4ccco4)CC3)nc(N)c2cc1OC.Cl [PRAZOSIN HYDROCHLORIDE] |  |  |  |  | -0.45 | 0.91 |  | 0.92 | -0.46 | 0.21 | 0.49 |  | 0.66 | 0.88 |  | 0.92 |  | 0.44 | 0.56 | 0.79 | Growth Rate (Fibroblast; [4]): 0.92; Growth Rate (U2OS; [7]): 0.78; Growth Rate (U2OS; [8]): 0.57; Growth Rate (U2OS; [10]): 0.77
CC(=O)NCC(=O)N1[C@@H]2CC[C@H]1c1ccc(Nc3ncc(C(F)(F)F)c(NC4CCC4)n3)cc12 [PF-03814735] | -0.04 | -0.37 |  |  | -0.24 | 0.56 | 0.22 | 0.12 |  | 0.58 | 0.72 | -0.88 | -0.54 | -0.45 | -0.48 | -0.31 |  | 0.26 | 0.36 | -0.73 | Growth Rate (Fibroblast; [5]): 0.79; Growth Rate (Fibroblast; [6]): 0.62; Growth Rate (HEK-293T; [4]): -0.65; Growth Rate (HEK-293T; [6]): -0.41; Growth Rate (U2OS; [8]): 0.23; Growth Rate (U2OS; [10]): 0.28
Cc1cccc(NC(=O)CN2CCC(c3ccccn3)CC2)c1.Cl.Cl |  | 0.72 |  |  |  |  |  |  | 0.02 | 0.19 | 0.48 | 0.66 | 0.79 |  | 0.98 |  | -1 | 0.77 |  | 0.47 | Growth Rate (HEK-293T; [4]): 0.97

Source: ChEMBL document CHEMBL5058564, “EUbOPEN Chemogenomics Library 2 (Incucyte)” (2022)
